The results in this text go back to US10987319B2, “TFEB activator C1 ameliorates app and tau pathology and rescues cognitive deficits in neurodegenerative diseases” (Hong Kong Baptist University, priority 2018, dated 2021).

Holding throughout (type): in vivo
Test [1] relates to APP, CTFs, phosphorylated Tau, total Tau, TFEB, LC3-II. Nature of the test: Western blotting of hippocampus, female 3×Tg mice. The method, then:
Homozygous 3×Tg mice (APP KM670/671NL (Swedish), MAPT P301L, PSEN1 M146V) were produced in Hong Kong Baptist University animal house and maintained at 23±2° C. temperature, 60±15% relative humidity with free access to food and water ad libitum.
(§1) Brain tissues were lysed with RIPA buffer (TBS with 1% NP-40, 1% sodium deoxycholic acid, 0.1% SDS, and protease phosphatase inhibitor cocktails) and centrifuged at 15,000 RPM for 30 min. Supernatant is collected and the pellets were further lysed with 2% SDS in RIPA buffer. Protein concentration was estimated by BCA assay. […] Protein chemiluminescence signal was detected by using ECL kit and quantified using ImageJ software.
A general note: In western blotting, separated proteins are transferred to a membrane and probed.

Another test relates to 3×Tg mice. Nature of the test: Open-field test. Here is the method:
Homozygous 3×Tg mice (APP KM670/671NL (Swedish), MAPT P301L, PSEN1 M146V) were produced in Hong Kong Baptist University animal house and maintained at 23±2° C. temperature, 60±15% relative humidity with free access to food and water ad libitum. Seven months old WT (129/SvJ, n=6 for male mice; n=10 for female mice) and 3×Tg mice (n=6 for male mice; n=10 for female mice) were treated daily with vehicle (1% CMC-Na; Sigma-Aldrich, C5678]), curcumin analogue C1 (2.5 mg/kg, 5 mg/kg, 10 mg/kg) or curcumin (50 mg/kg; Sigma-Aldrich, 08511) suspended in 1% CMC-Na by oral gavage for 7 months. 3×Tg mice were treated with the indicated compounds for 7 months and then the open-field test was performed to evaluate the exploratory behavior in novel environment. The experiment was conducted 30 min after last dosing time. Mice placed in the center of an empty open field (25 cm×25 cm) were allowed to explore the environment for 5 min without any external disturbance. Ethnovision XT software was used to measure the patterns of movement, time spent in the center and margin, velocity, distance traveled as indicators of agility and exploration.

The subject of test [2] is APP, APP CTFs, Aβ, LC3-II. As to the kind of experiment: Western blotting of brain tissue, 5×FAD mice. The method, then: 5×FAD male mice were inbred with wild-type (WT, C57/BL6) female mice to produce heterozygous offspring. Offspring were genotyped to select 5×FAD (APP KM670/671NL (Swedish), APP I716V (Florida), APP V717I (London), PSEN1 M146L (A>C), PSEN1 L286V) gene mutations mice.
as §1

The subject of a further test is 5×FAD mice. Nature of the test: Contextual fear conditioning. Here is the method:
Male 5×FAD mice were purchased from Jackson laboratories (Stock number 006554) and maintained at 23±2° C. temperature, 60±15% relative humidity with free access to food and water ad libitum. 5×FAD male mice were inbred with wild-type (WT, C57/BL6) female mice to produce heterozygous offspring. Offspring were genotyped to select 5×FAD (APP KM670/671NL (Swedish), APP I716V (Florida), APP V717I (London), PSEN1 M146L (A>C), PSEN1 L286V) gene mutations mice. Two months old WT and 5×FAD mice (male and female, n=10-14 per group) were treated daily with vehicle (1% sodium carbonyl methylcellulose [CMC-Na; Sigma-Aldrich, C5678]), curcumin analogue C1 (5 mg/kg, 10 mg/kg) or curcumin (50 mg/kg; Sigma-Aldrich, 08511) suspended in 1% CMC-Na by oral gavage for 4 months.
Contextual fear conditioning (CFC) was used to evaluate the fear memory reconsolidation of 5×FAD mice after treatment. The experiment was conducted 30 min after the drug treatment in ANY maze fear conditioning system under licensed ANY maze tracking system connected to a Windows XP computer. A digital camera was installed on each chamber and signals were sent to the computer for analysis. The experiments were conducted in two sound proof chambers. All the experiments were conducted with continuous 40 units of white noise and 40 lux white light. During training, mice were allowed to explore the platform for 2.5 min and then received 3 repeated footshock cycles (30 s) at 30 s intervals, each started with a cue tone (28 s, 1500 Hz) and ended by a footshock ([…], 2 s). On the second day the mice were allowed to explore the platform for 3 min followed by a cue tone (30 s, 1500 Hz) without footshock, and the freezing time was recorded. Contextual fear memory formation and the subsequent remote memory stabilization were evaluated by scoring freezing index (the absence of all but respiratory movement).

Where [3] appears, read: 5×FAD mice, male and female, 10 mg/kg oral 4 months.

For the compound `COc1ccccc1/C=C/C(=O)/C=C/c1ccccc1OC` [Compound C1, 1,5-bis(2-methoxyphenyl)penta-1,4-dien-3-one], in test [1] (10 mg/kg oral 7 months), the “hippocampal CTFs” value was “significantly reduced” and the “hippocampal Fl-APP levels” value is listed as “but not Fl-APP levels”. For the same compound, the “levels of phosphorylated Tau (PHF1, AT8)” value in test [1] (hippocampus, 10 mg/kg oral 7 months) is given as “significantly decreased”. Also, in test [1] (oral 7 months), the “levels of LC3-II” value was “significantly increased” and the “levels of nuclear TFEB” value is “significantly increased”. Further, the “time spent in the center vs vehicle” value with 3×Tg mice (3×Tg mice, 2.5, 5, 10 mg/kg oral 7 months) is “dose-dependently decreased”. Besides, the exploratory behavior result with 3×Tg mice (3×Tg mice, high dose 10 mg/kg oral 7 months, P<0.001) is reported as “almost recovered the exploratory behavior to the levels of WT mice”. Besides, in test [2] (setting [3]), the “LC3-II levels in brain (autophagy enhancement)” value is “increase in LC3-II levels”, the “levels of A3 in brain” value is “significantly reduced” and the “levels of APP CTFs in brain” value was “significantly reduced”. The “Fl-APP levels in brain” value in test [2] (female 5×FAD mice, oral 4 months) is recorded as “reduced Fl-APP levels”. For the same compound, the “freezing index (memory reconsolidation) vs vehicle” value in the test with 5×FAD mice (10 mg/kg oral daily 4 months, P<0.001) was “significant memory reconsolidation”. In addition, in the test on 5×FAD mice (C1 10 mg/kg vs curcumin 50 mg/kg), the “memory improvement compared with curcumin” value is “better memory improvement than curcumin”.
